For 1 molecule, IC50 results are on record in paper PMC9610999, “Itraconazole-Induced Increases in Gilteritinib Exposure Are Mediated by CYP3A and OATP1B” (Molecules, 2022).

In the test the target is T1, OATP1B2 (Mus musculus, UniProt Q9JJL3).
T1 construct: expressed in transfected cells; host or cells: HEK293
T1 sequence (Q9JJL3 1-689): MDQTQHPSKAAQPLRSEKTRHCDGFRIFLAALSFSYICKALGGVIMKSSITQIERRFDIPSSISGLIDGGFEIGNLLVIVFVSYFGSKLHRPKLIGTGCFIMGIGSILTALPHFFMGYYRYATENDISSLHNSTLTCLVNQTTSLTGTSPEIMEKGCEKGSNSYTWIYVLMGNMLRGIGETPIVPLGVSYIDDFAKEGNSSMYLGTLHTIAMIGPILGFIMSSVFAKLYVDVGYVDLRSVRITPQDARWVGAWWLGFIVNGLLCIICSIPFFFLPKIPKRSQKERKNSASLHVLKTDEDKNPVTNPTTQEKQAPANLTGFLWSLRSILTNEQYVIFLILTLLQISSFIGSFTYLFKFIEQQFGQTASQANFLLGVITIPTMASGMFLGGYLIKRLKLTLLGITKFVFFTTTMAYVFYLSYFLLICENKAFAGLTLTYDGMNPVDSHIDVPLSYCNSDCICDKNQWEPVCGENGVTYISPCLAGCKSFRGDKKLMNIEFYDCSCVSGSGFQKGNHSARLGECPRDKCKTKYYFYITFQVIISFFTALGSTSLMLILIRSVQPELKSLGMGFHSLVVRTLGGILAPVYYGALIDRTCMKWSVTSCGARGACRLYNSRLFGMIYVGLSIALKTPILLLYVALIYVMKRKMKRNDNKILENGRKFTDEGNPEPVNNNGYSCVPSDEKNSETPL
The test can be described thus: Transport inhibition assay: 8-FcA uptake in OATP1B2 overexpressing HEK293 cells. The settings on record: OATP1B2 overexpressing HEK293 cells vs vector control; fluorescent probe 8-FcA; read-out: IC50, inhibition of OATP1B2 function. It is filed as cell-based. The method, then: Transport inhibition assays using 8-(2-[fluoresceinyl]-aminoethylthio)-adenosine-3′,5′-cyclic-monophosphate (8-FcA) were completed as previously described. OAT1B2 overexpressing cells and vector control cells were grown to confluency in a 96-well plate. Cells were washed, then incubated for 15 min with 100 μL phenol red-free DMEM containing gilteritinib or vehicle (DMSO). The media was removed, then cells were incubated with 45 μL media containing 25 μM 8-FcA for 30 min. The media was removed and cells were washed three times with ice cold PBS. Fluorescence was measured on a plate reader at excitation and emission wavelengths of 485 and 535 nm, respectively. Cells were lysed with 0.2% nitric acid at 4 °C overnight and a Pierce protein assay was used to normalize the data to total protein.

Consider `CCc1nc(C(N)=O)c(Nc2ccc(N3CCC(N4CCN(C)CC4)CC3)c(OC)c2)nc1NC1CCOCC1` [Gilteritinib], for which the IC50 (usually the concentration that inhibits the measured activity by half) was 1830 nM.
